In PubChem BioAssay AID179 (DTP/NCI, 2004):
Several values for one entry are separate records, joined by “and”; a condition that tells them apart may be missing. Equal entries are not always repeated. Activity calls are given as the source filed them.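 How the source made its calls: active means compounds giving half or more protection of infected cells from virus-caused growth loss, again on retest; inactive means the rest.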

System: CEM cells HIV-1 protection, formazan growth assay
Assay: NCI AIDS Antiviral Assay
Conditions: for IC50: measured here: growth of uninfected CEM cells
Method in brief: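 Protection of CEM cells against HIV-1 was scored from cell growth (soluble formazan) across five concentrations, with parallel uninfected cells. Lack of protection may reflect toxicity.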

| Structure (SMILES) | outcome | EC50 | IC50 |
| --- | --- | --- | --- |
| S=C(NCCCCCCNC(=S)Nc1c2ccccc2nc2ccccc12)Nc1c2ccccc2nc2ccccc12 | inactive |  |  |
| O=C(O)CNS(=O)(=O)c1ccc(NC(=O)c2ccc(F)cc2)cc1 | inactive |  |  |
| O=C(C[n+]1ccccc1)c1ccc(O)c(O)c1 |  | 0.0631 µM | > 200 µM |
| CC1=NC(=O)C(C)(c2ccccc2)N1CCc1ccccc1 (stereo not drawn) |  | > 200 µM | 45.7 µM |
| O=C(CC(O)c1cccnc1)CC(O)c1cccnc1 (stereo not drawn) |  | > 200 µM | 2.82 µM |
| COc1cc(CC(=O)O)c([N+](=O)[O-])cc1OC |  | > 1020 µM | 891 µM |
| O=C(/N=N/C(=O)N1CCOCC1)N1CCOCC1 |  | 75.9 µM | 87.1 µM |
| CC1OC(OC2C(CO)OC(O[C@H]3CC[C@@]4(C)C(=CC[C@H]5[C@@H]6C[C@@H]7O[C@]8(CC[C@@H](C)CN8)[C@@H](C)[C@@H]7[C@@]6(C)CC[C@@H]54)C3)C(O)C2O)C(O)C(O)C1O (stereo partly drawn) | inactive |  |  |
| CC(=O)OC1COC(n2c(N)c(C#N)c(-c3ccccc3)c(C#N)c2=S)C(OC(C)=O)C1OC(C)=O (stereo not drawn) |  | > 200 µM | 33.9 µM and 36.3 µM |
| NC(N)=NS(N)(=O)=O |  | > 200 µM | > 200 µM |
| COC1CCC(C(C)O)OO1 (stereo not drawn) |  | > 200 µM | 33.9 µM |
| COC(=O)CCC=C(c1cc(Cl)c(OC)c(C(=O)OC)c1)c1cc(Cl)c(OC)c(C(=O)OC)c1 |  | > 200 µM | 44.7 µM |
| CCOC(=O)C(=[N+]=[N-])C(=O)C1(C(=O)OCC)CCN(C(=O)c2ccccc2)C1=O (stereo not drawn) |  | > 200 µM | > 200 µM |
| COc1cc2cccc(NC(=O)c3cc(OC)c(OC)c(OC)c3Br)c2cc1OC | inactive |  |  |
| C#CC(C)(C)Oc1ccc2c(=O)c(-c3ccc(OC)cc3)coc2c1 |  | > 200 µM | 20 µM |
| N=C1N(c2ccccc2)C(=S)C(=Nc2ccccc2)N1c1ccccc1 |  | > 200 µM | 3.89 µM |
| CSc1cnc2ccccc2c1Sc1c[nH]c2ccccc2c1=O |  | > 14.8 µM | 13.2 µM |
| CCOP(=O)(OCC)C(NC(=O)C(C(F)(F)F)C(F)(F)F)c1ccccc1 (stereo not drawn) |  | > 200 µM | 24.5 µM |
| CC(CN1CCN(CC(C)Nc2ccnc3cc(Cl)ccc23)CC1)Nc1ccnc2cc(Cl)ccc12 (stereo not drawn) |  | > 50.1 µM | > 50.1 µM |
| c1ccc2c(N3CC3)nncc2c1 |  | > 200 µM | > 200 µM |
| CCO/C=C(\C)CC1([N+](=O)[O-])C(=O)c2ccccc2C1=O | inactive |  |  |
| CCNCC(O)COc1ccc2c(c1)[n+]([O-])nc(N)[n+]2[O-] (stereo not drawn) |  | > 200 µM | 13.8 µM |

| Structure (SMILES) | outcome | EC50 | IC50 |
| --- | --- | --- | --- |
| O=C(/C(C=NC(=S)c1ccncc1)=C(/O)C1=CC=CCC1)c1ccccc1 | inactive |  |  |
| CC(C)C(C(=O)O)N(CC1(O)OCC(O)C(O)C1O)N=O (stereo not drawn) | inactive |  |  |
| CC(C)(C)OC(=O)N1NC(c2ccccc2)CC1c1ccccc1 (stereo not drawn) |  | > 200 µM | 28.2 µM |
| CC(CC12CCC3(OO1)C(C)(C)CCCC3(C)O2)OC(=O)c1ccccc1 (stereo not drawn) |  | > 200 µM | 18.2 µM |
| C[N+](C)(C)CC1CCC(C[N+](C)(C)C)C1=NO (stereo not drawn) |  | > 501 µM | > 501 µM |
| CC(C)(C)COC(=O)C(C)(C)NC(=O)C(CC(=O)OCc1ccccc1)NC(=O)OCc1ccccc1 (stereo not drawn) |  | > 200 µM | 19.1 µM |
| O=C(O)c1cc2cccc(S(=O)(=O)O)c2cc1O |  | > 200 µM | > 200 µM |
| O=C(O)c1cc(N=Nc2cccc([N+](=O)[O-])c2)ccc1O |  | > 200 µM | 67.6 µM |
| CCOC(=O)C[C@@]12CCCN[C@]1(C)CCc1ccccc12 | inactive |  |  |
| O=C1NCCCc2nonc21 |  | > 200 µM | > 200 µM |
| COC(=O)C(=O)C(CC(=O)Nc1ccc(C)cc1)C(=O)OC (stereo not drawn) |  | > 309 µM | > 309 µM |
| COc1ccc2c(c1)-c1c(c3ccccc3n1CCN1CCCCC1)CC2 |  | > 100 µM | 30.9 µM |
| O=C(O)C12C3CCC(O3)C1(C(=O)O)C1CCC2O1 (stereo not drawn) |  | > 200 µM | > 200 µM |
| CC1(C)CC[C@H](C2=CC(=O)c3c(O)ccc(O)c3C2=O)O1 |  | > 91.2 µM | 0.0955 µM |
| O=C(O)c1ccccc1CC(Cc1ccc2c(c1)CCC2)C(=O)O (stereo not drawn) |  | > 200 µM | > 200 µM |
| O=C(Nc1nccs1)c1ccc(C(=O)Nc2nccs2)cc1 |  | > 200 µM | > 200 µM |
| COc1ccc2c(c1)N(CC(C)CN(C)C)c1ccccc1S2 (stereo not drawn) |  | > 200 µM | > 200 µM |
| C[N+](C)(C)C(CSSCC(C(=O)[O-])[N+](C)(C)C)C(=O)[O-] (stereo not drawn) |  | > 200 µM | > 200 µM |
| O=P1(O)c2ccccc2-c2ccccc21 |  | > 200 µM | > 200 µM |
| O=S1Cc2ccccc2CSS1 (stereo not drawn) | inactive |  |  |
| CC(C)CCC[C@@H](C)C1CCC2[C@@H]3CC=C4C[C@@H](C(=O)NCCN(C)C)CC[C@]4(C)C3CC[C@@]21C (stereo partly drawn) | inactive |  |  |
| CC1(C)C2CC(c3ccncc3)ON2C(C)(C)N1O (stereo not drawn) |  | > 200 µM | > 200 µM |

| Structure (SMILES) | outcome | EC50 | IC50 |
| --- | --- | --- | --- |
| COc1ccc(-c2c(C#N)c(=O)nc(SC)n2C2OCC(OC(C)=O)C(OC(C)=O)C2OC(C)=O)cc1 (stereo not drawn) |  | > 200 µM | 35.5 µM |
| CCOC(=O)Cc1nc2ccc3c(c2[nH]c1=O)C(=O)c1ccccc1C3=O |  | > 14.5 µM | > 14.5 µM |
| COC(=O)c1cc(C(=CCC(=O)N[C@@H]2CC[C@@]3(C)[C@@H](CC[C@@H]4[C@@H]3CC[C@]3(C)[C@@H]([C@H](C)CCCC(C)C)CC[C@@H]43)C2)c2cc(Cl)c(OC)c(C(=O)OC)c2)cc(Cl)c1OC |  | > 200 µM | > 200 µM |
| CC(C)CCCC(C)[C@H]1CCC2C3CCC4C[C@@H](CCCC(c5cc(Cl)c(O)c(C(=O)O)c5)c5cc(Cl)c(O)c(C(=O)O)c5)CC[C@]4(C)C3CC[C@@]21C (stereo partly drawn) |  | 8.91 µM | > 200 µM |
| COc1ccc(C2C(Cl)C(=O)N2NC(=O)c2ccc(N)cc2)cc1 (stereo not drawn) |  | > 200 µM | > 200 µM |
| O=C(CCSSCCC(=O)ON1C(=O)CCC1=O)ON1C(=O)CCC1=O |  | > 200 µM | > 200 µM |
| CNc1c2cccc(C)c2nc2c(C(=O)NCCN(C)C)cccc12 |  | > 0.2 µM | 0.0191 µM |
| C1=Nc2ccc(cc2)-c2ccc(cc2)N=Cc2ccc(cc2)OCc2cccc(n2)COc2ccc1cc2 |  | > 100 µM | > 100 µM |
| O=C(O)CCCCCCC[n+]1ccccc1 |  | 126 µM | > 200 µM |
| CCCCCCCCCC(=O)Oc1cccc2onc(C)c12 |  | > 24 µM | > 24 µM |
| Cc1cc(=O)oc2c3c4c(cc12)CCCN4CCC3 |  | > 14.8 µM | > 14.8 µM |
| COc1cc(CNCc2cc(OC)c(OC)c(OC)c2)cc(OC)c1OC |  | > 200 µM | > 200 µM |
| CCCCCCCCCCCCCCCCCCCCOC1OC(CO)C(O)C(O)C1O (stereo not drawn) |  | > 3.63 µM | > 3.63 µM |
| CC(C)OP(=O)(Cc1cc(C(C)(C)C)c(O)c(C(C)(C)C)c1)OC(C)C |  | > 67.6 µM | > 67.6 µM |
| CC1=C(C(N)=O)C(c2ccncc2)C(C#N)C(=O)N1 (stereo not drawn) |  | > 200 µM | 145 µM |
| CC(=O)C1=C(C)N2C(=NC3=C(CCc4ccccc43)C2c2ccc(Cl)cc2)S1 (stereo not drawn) |  | > 200 µM | 18.6 µM |
| COc1ccc(Cn2c3ccc([N+](=O)[O-])cc3c(=O)n2Cc2ccccn2)cc1 |  | > 200 µM | > 200 µM |
| CCN(CC)CCNc1ccc([N+](=O)[O-])c2nc3ccccc3c(N)c12 |  | > 100 µM | 0.575 µM |
| COc1c2c(cc3c1C(=O)c1c(O)cccc1C3=O)CC(O)CC2 (stereo not drawn) |  | > 200 µM | > 200 µM |
| O=C(O)Cc1cccc2c(=O)c3ccccc3oc12 |  | > 200 µM | > 200 µM |
